Laboratory results taken from patent US20060134670A1, “Enabling tools to identify ligands for hormone nuclear receptors” (priority 2004, published 2006).

Legend:
LXRβ (NR1H2) = molecular target: T1, LXRβ (NR1H2) (Homo sapiens, UniProt P55055); assay: R-SAT single receptor format, LXRβ; type: cell-based; conditions: NIH-3T3 cells transfected with LXRβ
T1 construct: expressed in transfected cells; host or cells: NIH-3T3
T1 sequence (P55055 1-460): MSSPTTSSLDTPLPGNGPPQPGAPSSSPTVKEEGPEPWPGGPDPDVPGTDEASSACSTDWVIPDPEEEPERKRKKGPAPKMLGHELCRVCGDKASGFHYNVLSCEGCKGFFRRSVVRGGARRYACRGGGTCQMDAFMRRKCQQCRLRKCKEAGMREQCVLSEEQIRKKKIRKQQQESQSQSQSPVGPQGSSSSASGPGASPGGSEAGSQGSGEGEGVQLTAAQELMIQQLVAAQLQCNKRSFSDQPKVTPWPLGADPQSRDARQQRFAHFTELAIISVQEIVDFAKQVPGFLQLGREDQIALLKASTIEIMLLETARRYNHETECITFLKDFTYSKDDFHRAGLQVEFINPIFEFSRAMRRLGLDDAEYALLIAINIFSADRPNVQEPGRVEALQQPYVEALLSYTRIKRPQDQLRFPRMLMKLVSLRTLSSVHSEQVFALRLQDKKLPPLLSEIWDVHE
Excerpt: (§1) Curves were generated using XLFit software ([…]).

LXRα (NR1H3) = molecular target: T2, LXRα (NR1H3) (Homo sapiens, UniProt Q13133); assay: R-SAT single receptor format, LXRα; type: cell-based; conditions: NIH-3T3 cells transfected with LXRα
T2 construct: expressed in transfected cells; host or cells: NIH-3T3
T2 sequence (Q13133 1-447): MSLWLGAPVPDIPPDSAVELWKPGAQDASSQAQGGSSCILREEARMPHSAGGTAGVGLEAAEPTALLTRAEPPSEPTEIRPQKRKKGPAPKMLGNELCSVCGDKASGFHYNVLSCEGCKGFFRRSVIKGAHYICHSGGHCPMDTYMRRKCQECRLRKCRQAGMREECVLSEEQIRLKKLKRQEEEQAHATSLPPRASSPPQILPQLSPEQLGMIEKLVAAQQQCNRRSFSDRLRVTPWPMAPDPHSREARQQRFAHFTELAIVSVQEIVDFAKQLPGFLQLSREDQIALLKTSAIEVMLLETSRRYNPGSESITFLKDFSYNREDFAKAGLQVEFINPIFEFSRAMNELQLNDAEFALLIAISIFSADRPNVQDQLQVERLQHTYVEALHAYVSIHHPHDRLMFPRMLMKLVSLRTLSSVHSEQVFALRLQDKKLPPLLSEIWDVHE
Excerpt: as §1

[1] = molecular target: T3, CARα and RXR nuclear receptors (heterodimer) (Homo sapiens, UniProt Q14994); assay: R-SAT inverse agonism, CARα/RXR; type: cell-based; conditions: cells transfected with CARα and RXR, β-galactosidase activity, FIG. 4A
T3 construct: expressed in transfected cells
T3 sequence (Q14994 1-348 isoform Q14994-2): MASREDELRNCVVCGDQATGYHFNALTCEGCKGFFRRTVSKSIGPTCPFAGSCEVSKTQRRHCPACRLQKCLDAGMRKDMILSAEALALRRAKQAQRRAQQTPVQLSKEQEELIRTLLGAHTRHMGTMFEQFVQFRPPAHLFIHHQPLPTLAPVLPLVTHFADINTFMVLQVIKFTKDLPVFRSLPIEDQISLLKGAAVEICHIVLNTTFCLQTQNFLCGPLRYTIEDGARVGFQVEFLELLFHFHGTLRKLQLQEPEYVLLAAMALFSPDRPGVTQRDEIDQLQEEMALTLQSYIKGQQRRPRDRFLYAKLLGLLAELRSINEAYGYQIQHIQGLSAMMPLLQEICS
T3 sequence (P48443 1-463 partner): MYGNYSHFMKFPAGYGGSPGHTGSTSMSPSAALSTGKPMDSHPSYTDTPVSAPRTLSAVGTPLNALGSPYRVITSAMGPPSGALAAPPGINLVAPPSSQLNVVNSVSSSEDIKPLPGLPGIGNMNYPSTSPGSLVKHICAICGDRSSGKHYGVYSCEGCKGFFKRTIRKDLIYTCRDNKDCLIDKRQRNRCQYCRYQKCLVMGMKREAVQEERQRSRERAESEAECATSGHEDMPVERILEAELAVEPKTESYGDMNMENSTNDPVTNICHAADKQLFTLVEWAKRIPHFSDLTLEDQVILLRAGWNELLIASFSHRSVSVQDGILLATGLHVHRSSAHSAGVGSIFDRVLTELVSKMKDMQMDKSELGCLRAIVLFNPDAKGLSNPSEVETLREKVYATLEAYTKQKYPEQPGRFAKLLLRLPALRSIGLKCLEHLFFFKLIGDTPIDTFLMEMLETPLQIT
Excerpt: as §1

PPARδ (NR1C2) = molecular target: T4, PPARδ (NR1C2) (Homo sapiens, UniProt Q03181); assay: R-SAT single receptor format, PPARδ; type: cell-based; conditions: NIH-3T3 cells transfected with PPARδ
T4 construct: expressed in transfected cells; host or cells: NIH-3T3
T4 sequence (Q03181 1-441): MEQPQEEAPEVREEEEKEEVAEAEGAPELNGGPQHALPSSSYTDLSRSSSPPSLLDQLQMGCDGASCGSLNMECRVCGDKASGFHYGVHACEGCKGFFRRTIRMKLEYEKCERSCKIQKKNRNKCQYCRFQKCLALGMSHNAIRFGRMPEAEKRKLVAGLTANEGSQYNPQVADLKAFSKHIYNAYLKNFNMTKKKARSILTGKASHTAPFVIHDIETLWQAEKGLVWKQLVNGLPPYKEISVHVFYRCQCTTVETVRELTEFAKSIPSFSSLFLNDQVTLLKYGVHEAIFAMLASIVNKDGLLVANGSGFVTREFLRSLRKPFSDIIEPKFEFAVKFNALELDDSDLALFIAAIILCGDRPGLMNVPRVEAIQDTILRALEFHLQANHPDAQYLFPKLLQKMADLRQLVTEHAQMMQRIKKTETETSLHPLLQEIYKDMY
Excerpt: as §1

PXR/RXR heterodimer = molecular target: T5, PXR/RXR heterodimer (Homo sapiens, UniProt O75469); conditions: 5 days
T5 sequence (O75469 1-434): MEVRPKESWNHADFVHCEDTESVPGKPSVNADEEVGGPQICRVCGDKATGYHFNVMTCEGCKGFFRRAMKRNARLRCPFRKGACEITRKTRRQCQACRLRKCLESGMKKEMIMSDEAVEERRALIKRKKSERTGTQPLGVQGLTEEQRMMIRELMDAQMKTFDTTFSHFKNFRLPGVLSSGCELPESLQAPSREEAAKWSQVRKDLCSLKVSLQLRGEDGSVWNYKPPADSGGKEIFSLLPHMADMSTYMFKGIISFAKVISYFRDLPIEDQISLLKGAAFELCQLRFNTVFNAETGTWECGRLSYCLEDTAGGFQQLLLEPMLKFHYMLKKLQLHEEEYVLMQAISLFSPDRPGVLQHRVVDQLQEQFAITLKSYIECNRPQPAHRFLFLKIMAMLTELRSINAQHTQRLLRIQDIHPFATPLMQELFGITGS
T5 sequence (P48443 1-463 partner): T3 sequence (P48443 1-463 partner)
Experimental: On day one, cells were trypsinized, centrifuged and plated at 8,000 cells/well in a 96-well plate in 100 μl/well of Dubelcco's Modified Eagle's Medium (DMEM), 10% calf serum. On day two, cells were transfected using the transfection reagent Superfect® (Qiagen, Inc.) as recommended by the manufacturer. Various doses of the nuclear receptor plasmid DNA were transfected. DNA mixtures included 0.1 to 10 ng/well of receptors DNA, 20 to 30 ng/well of β-galactosidase plasmid DNA (pSV β-galactosidase, Promega) and 15 μl of Superfect®. On day three, the media was replaced by DMEM with 2% Cyto-SF3 (Kemp Biotechnologies, Inc.) containing variable amounts of the compounds being tested. […] All data were obtained by measuring the change in absorbance at 420 nm using an automated plate reader. EC50 values were calculated using the equation r=A+B(x/(c+c)), where A=minimum response, B=maximum response minus maximum response, c=EC50, r=response, and x=concentration of ligand. Curves were generated using XLFit software (Microsoft).
The coactivators GRIP1 (Glucocorticoid Receptor Interacting Protein 1) (GenBank U39060) and SRC-1 (Steroid Receptor Coactivator 1) (GenBank U90661) were used in this assay. In summary, plasmid DNA encoding the coactivator(s) were transfected along with the aforementioned transfection mixture (containing the PXR, RXR, and β-Gal plasmid DNAs).

`CC(C)CC[C@@H](O)[C@@H](C)[C@H]1CC[C@H]2[C@@H]3CC=C4C[C@@H](O)CC[C@]4(C)[C@H]3CC[C@]12C` [22(R)OH-Cholesterol] gave an EC50 (LXRβ (NR1H2)) of 3 to 5 µM and an EC50 (LXRα (NR1H3)) of 3 to 5 µM.

For `C[C@]12CC[C@@H](O)C[C@@H]1CC[C@@H]1[C@@H]2CC[C@]2(C)C=CC[C@@H]12` [Androstenol], the inverse agonist activity [1] was “inverse agonist activity”.

`CCCCC[C@H](O)/C=C/[C@@H]1[C@H]2C/C(=C/CCCC(=O)O)C[C@H]2C[C@H]1O` [carbaprostacyclin] was tested, and the EC50 (PPARδ (NR1C2)) was 200 to 500 nM.

In the case of `CO[C@H]1/C=C/O[C@@]2(C)Oc3c(C)c(O)c4c(O)c(c(/C=N/N5CCN(C)CC5)c(O)c4c3C2=O)NC(=O)/C(C)=C\C=C\[C@H](C)[C@H](O)[C@@H](C)[C@@H](O)[C@@H](C)[C@H](OC(C)=O)[C@@H]1C` [rifampicin], the “efficacy of pharmacological response” value (PXR/RXR heterodimer) is reported as 5-10%.
